Values quoted from earlier work in patent publication US8962847B2, “Multicomponent crystals made of ([2-amino-6-(4-fluoro-benzylamino)-pyridin-3-yl]-carbamic acid ethyl ester and an arylpropionic acid” (TEVA GmbH, priority 2010, dated 2015).
Structures can show the parent of a compound that is named as a salt. Where two headings read alike, the source gives them in different places.

Key:
[1] = tested on: pain, fever, inflammation; settings: in vivo
[2] = tested on: antinociceptive (pain perception inhibiting) activity; settings: mice, flupirtine maleate 15 mg per kg with various dosages of NSAIDS
[3] = tested on: antinociceptive (pain perception inhibiting) activity; settings: rat, flupirtine maleate 35 mg per kg with various dosages of NSAIDS

For `CC(C)Cc1ccc([C@H](C)C(=O)O)cc1` [dexibuprofen, (+)-(2S)-2-[4-(2-methylpropyl)-phenyl]propanoic acid], the “beginning of action compared with the racemic mixture of ibuprofen” value [1] is listed as “somewhat faster”.
For `CCOC(=O)Nc1ccc(NCc2ccc(F)cc2)nc1N` [flupirtine maleate], the “effect on the antinociceptive activity of paracetamol, acetyl salicylic acid, and diclofenac” value [2] is given as “enhances” and the “effect on the antinociceptive activity of paracetamol, acetyl salicylic acid, and diclofenac” value [3] is given as “enhances”.
